This is an account of results in US11858905B1, “Cathepsin L inhibitors” (priority 2023, dated 2024).

The target in one experiment is human CatL (Homo sapiens (Human), UniProt P07711). Kind of experiment: Human Cathepsin L (CatL) enzymatic assay. It counts as biochemical. Here is the method: Human Cathepsin L (CatL) Enzymatic Assay
60 μL of the compounds were added to 384-well dilution plate. The compound solution was diluted for 1:3 in succession in DMSO for each column for 10 pts. 0.05 μL diluted compound solution was added in each row to 384 assay plates (Corning 4514) using Echo (LABCYTE 655), each column containing 2 replicates. 5 μL working solution of human CatL enzyme (Abcam #ab81780) was added to 384-well assay plate, centrifuge 1000 rpm for 1 min. The mixture was incubated at […] for 15 min, then add 5 μL working solution of CatL substrate (Genscript #C7360HB140_5) to initiate the reaction (CatL: 0.05 nM, Substrate: 500 nM). Incubate at […] for 30 min. Reading Ex370 nm and Em460 nm fluorescence signals with BMG CLARIO Star Plusaucu. Percent inhibition for each compound was calculated and IC50 (half maximal inhibitory concentration) was fitted from non-linear regression by XLfit 5.5.0.

The test system of a further experiment is SARS-CoV-2 PsVs. Kind of experiment: microbe, parasite or virus in culture. In kind it is cell-based. The conditions noted are these: for activity at 0.5 µM / activity at 5 µM: Severe acute respiratory syndrome coronavirus 2, Vero C1008, 24 h; for activity at 0.5 µM: read-out: % Infection rate at 500 nM; for activity at 5 µM: read-out: % Infection rate at 5 uM.

The mark [1] stands for this setting: CatL 0.05 nM, substrate 500 nM, pH 5.5, read-out: Enzymatic inhibition IC50.
Setting [2] is: summary of Table 2, read-out: IC50 for inhibiting CatL.

Read-outs that look alike come from different tables or passages of the source.

Chain of human CatL (P07711 whole entry, looked up): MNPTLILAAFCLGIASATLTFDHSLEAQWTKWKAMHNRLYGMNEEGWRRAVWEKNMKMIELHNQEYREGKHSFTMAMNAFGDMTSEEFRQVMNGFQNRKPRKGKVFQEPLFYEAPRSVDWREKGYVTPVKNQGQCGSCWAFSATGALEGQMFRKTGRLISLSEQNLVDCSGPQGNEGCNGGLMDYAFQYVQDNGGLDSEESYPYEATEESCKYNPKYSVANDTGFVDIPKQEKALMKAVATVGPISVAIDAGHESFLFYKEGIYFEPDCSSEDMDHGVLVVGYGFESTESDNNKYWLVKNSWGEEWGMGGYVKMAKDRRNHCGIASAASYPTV

As for `CC1(c2cc(C(=O)N[C@@H](Cc3nc4ccc(-c5ccnc(C6CC6)c5)cc4o3)C(=O)NC3(C#N)CC3)n(C3CC3)n2)CC1` [Compound 48, (S)—N-(1-((1-cyanocyclopropyl)amino)-3-(6-(2-cyclopropylpyridin-4-yl)benzo[d]oxazol-2-yl)-1-oxopropan-2-yl)-1-cyclopropyl-3-(1-methylcyclopropyl)-1H-pyrazole-5-carboxamide], the IC50 on human CatL (setting [1]) turned out to be 3.5 nM. Further, in the experiment on SARS-CoV-2 PsVs, the activity at 0.5 µM came out at 63% and the activity at 5 µM was determined as 22.4%.

Regarding `CC(=O)Nc1ccc(-c2ccc3nc(C[C@H](NC(=O)c4cc(C5(C)CC5)nn4C4CC4)C(=O)NC4(C#N)CC4)oc3c2)cn1` [Compound 41, (2S)—N-(1-cyanocyclopropyl)-2-{[2-cyclopropyl-5-(1-methylcyclopropyl)pyrazol-3-yl]formamido}-3-[6-(6-acetamidopyridin-3-yl)-1,3-benzoxazol-2-yl]propanamide], the half-inhibitory concentration (IC50) on human CatL (setting [1]) is 5.3 nM. Also, in the experiment with SARS-CoV-2 PsVs, the activity at 0.5 µM turned out to be 90% and the activity at 5 µM turned out to be 57.7%.

For `CN1CCN(c2ccc3nc(C[C@H](NC(=O)c4cccc(Cl)c4)C(=O)NC4(C#N)CC4)oc3c2)CC1` [Compound 24, (S)-3-chloro-N-(1-((1-cyanocyclopropyl)amino)-3-(6-(4-methylpiperazin-1-yl)benzo[d]oxazol-2-yl)-1-oxopropan-2-yl)benzamide], on human CatL (setting [1]), the IC50 turned out to be 9.7 nM. Also, the IC50 on human CatL (setting [2]) is less than 10 nM. Also, in the experiment with SARS-CoV-2 PsVs, the activity at 0.5 µM stood at 34% and the activity at 5 µM amounted to 2%.

Consider `N#CCNC(=O)[C@H](Cc1nc2ccccc2o1)NC(=O)c1cc(C2CC2)nn1C1CC1` [Compound 15, (S)—N-(3-(benzo[d]oxazol-2-yl)-1-((cyanomethyl)amino)-1-oxopropan-2-yl)-1,3-dicyclopropyl-1H-pyrazole-5-carboxamide], for which the IC50 on human CatL (setting [1]) worked out at 19.4 nM. In addition, at human CatL (setting [2]), the IC50 was less than 50 nM. In the experiment with SARS-CoV-2 PsVs, the activity at 0.5 µM stood at 79% and the activity at 5 µM worked out at 20%.

As to `N#Cc1cccc2nc(C[C@H](NC(=O)c3cccc(Cl)c3)C(=O)NC3(C#N)CC3)oc12` [Compound 5, (S)-3-chloro-N-(3-(7-cyanobenzo[d]oxazol-2-yl)-1-((1-cyanocyclopropyl)amino)-1-oxopropan-2-yl)benzamide], the IC50 on human CatL (setting [1]) is 122 nM. In the experiment with SARS-CoV-2 PsVs, the activity at 0.5 µM came out at 91% and the activity at 5 µM came to 81%.

In the case of `CCNc1ccc(-c2ccc3nc(C[C@H](NC(=O)c4cc(C5(C)CC5)nn4C4CC4)C(=O)NC4(C#N)CC4)oc3c2)cn1` [Compound 43, (S)—N-(1-((1-cyanocyclopropyl)amino)-3-(6-(6-(ethylamino)pyridin-3-yl)benzo[d]oxazol-2-yl)-1-oxopropan-2-yl)-1-cyclopropyl-3-(1-methylcyclopropyl)-1H-pyrazole-5-carboxamide], the IC50 on human CatL (setting [1]) was determined as 0.8 nM. In the experiment on SARS-CoV-2 PsVs, the activity at 0.5 µM was 18% and the activity at 5 µM turned out to be 0.8%.

`N#CC1(NC(=O)[C@H](Cc2nc3ccccc3o2)NC(=O)c2cccc(Cl)c2)CC1` [Compound 1, (S)—N-(3-(benzo[d]oxazol-2-yl)-1-((1-cyanocyclopropyl)amino)-1-oxopropan-2-yl)-3-chlorobenzamide]: the IC50 at human CatL (setting [1]) was 14.1 nM. For the same compound, in the experiment on SARS-CoV-2 PsVs, the activity at 0.5 µM amounted to 69% and the activity at 5 µM is 39%.

As to `CC(C)(C)c1cc(C(=O)N[C@@H](Cc2nc3ccc(-c4ccc(N)nc4)cc3o2)C(=O)NC2(C#N)CC2)n(C2CC2)n1` [Compound 34, (S)—N-(3-(6-(6-aminopyridin-3-yl)benzo[d]oxazol-2-yl)-1-((1-cyanocyclopropyl)amino)-1-oxopropan-2-yl)-3-(tert-butyl)-1-cyclopropyl-1H-pyrazole-5-carboxamide], the IC50 on human CatL (setting [1]) came to 0.6 nM. Moreover, in the experiment on SARS-CoV-2 PsVs, the activity at 0.5 µM was determined as 41% and the activity at 5 µM came out at 0.9%.

On to `N#CC1(NC(=O)[C@H](Cc2nc3ccccc3s2)NC(=O)c2cccc(Cl)c2)CC1` [Compound 31, (S)—N-(3-(benzo[d]thiazol-2-yl)-1-((1-cyanocyclopropyl)amino)-1-oxopropan-2-yl)-3-chlorobenzamide], for which the IC50 at human CatL (setting [1]) was determined as 11.7 nM. Further, the IC50 at human CatL (setting [2]) is less than 50 nM. In the experiment with SARS-CoV-2 PsVs, the activity at 0.5 µM was 67% and the activity at 5 µM was 10%.

Take `Cc1cccc(C(=O)N[C@@H](Cc2nc3ccccc3o2)C(=O)NC2(C#N)CC2)n1` [Compound 14, (S)—N-(3-(benzo[d]oxazol-2-yl)-1-((1-cyanocyclopropyl)amino)-1-oxopropan-2-yl)-6-methylpicolinamide]: the IC50 on human CatL (setting [1]) worked out at 534 nM. In addition, in the experiment with SARS-CoV-2 PsVs, the activity at 0.5 µM was found to be 103% and the activity at 5 µM amounted to 97%.

Consider `CN1CCN(c2ccc3nc(C[C@H](NC(=O)c4cccc(Cl)c4)C(=O)NC4(C#N)CC4)oc3c2)C(=O)C1` [Compound 30, (S)-3-chloro-N-(1-((1-cyanocyclopropyl)amino)-3-(6-(4-methyl-2-oxopiperazin-1-yl)benzo[d]oxazol-2-yl)-1-oxopropan-2-yl)benzamide], for which the IC50 at human CatL (setting [1]) turned out to be 124 nM. In the experiment with SARS-CoV-2 PsVs, the activity at 0.5 µM was 99% and the activity at 5 µM was determined as 101%.

For `N#CC1(NC(=O)[C@H](Cc2nc3ccccc3o2)NC(=O)c2cn(C3CC3)nc2C(F)(F)F)CC1` [Compound 18, (S)—N-(3-(benzo[d]oxazol-2-yl)-1-((1-cyanocyclopropyl)amino)-1-oxopropan-2-yl)-1-cyclopropyl-3-(trifluoromethyl)-1H-pyrazole-4-carboxamide], the IC50 at human CatL (setting [1]) is 50.7 nM. In the experiment on SARS-CoV-2 PsVs, the activity at 0.5 µM turned out to be 92% and the activity at 5 µM was found to be 72.6%.

On to `N#CC1(NC(=O)[C@H](Cc2nc3ccc(C4=CCN(CC(F)F)CC4)cc3o2)NC(=O)c2cccc(Cl)c2)CC1` [Compound 28, (S)-3-chloro-N-(1-((1-cyanocyclopropyl)amino)-3-(6-(1-(2,2-difluoroethyl)-1,2,3,6-tetrahydropyridin-4-yl)benzo[d]oxazol-2-yl)-1-oxopropan-2-yl)benzamide], for which, at human CatL (setting [1]), the IC50 came to 12.3 nM. Besides, in the experiment with SARS-CoV-2 PsVs, the activity at 0.5 µM was 70% and the activity at 5 µM was 38%.

For the compound `COCCN1CC=C(c2ccc3nc(C[C@H](NC(=O)c4cc(C5(C)CC5)nn4C4CC4)C(=O)NC4(C#N)CC4)oc3c2)CC1` [Compound 46, (2S)—N-(1-cyanocyclopropyl)-2-{[2-cyclopropyl-5-(1-methylcyclopropyl)pyrazol-3-yl]formamido}-3-{6-[1-(2-methoxyethyl)-3,6-dihydro-2H-pyridin-4-yl]-1,3-benzoxazol-2-yl}propanamide], the IC50 at human CatL (setting [1]) amounted to 1 nM. Besides, in the experiment with SARS-CoV-2 PsVs, the “protection of cells from pseudovirus infection at 500 nM” value is “nearly full protection”, the activity at 0.5 µM came out at 7% and the activity at 5 µM came out at 0.08%.

Regarding `Cc1cc(-c2ccc3nc(C[C@H](NS(=O)(=O)c4cccc(Cl)c4)C(=O)NCC#N)oc3c2)ccn1` [Compound 37, (S)-2-((3-chlorophenyl)sulfonamido)-N-(cyanomethyl)-3-(6-(2-methylpyridin-4-yl)benzo[d]oxazol-2-yl)propanamide], the IC50 at human CatL (setting [1]) was 125 nM. In the experiment with SARS-CoV-2 PsVs, the activity at 0.5 µM was determined as 96% and the activity at 5 µM was 104%.

As for `CC(C)(C)c1cc(C(=O)N[C@@H](Cc2nc3cc(F)cc(Cl)c3o2)C(=O)NC2(C#N)CC2)n(C2COC2)n1` [Compound 22, (S)-3-(tert-butyl)-N-(3-(7-chloro-5-fluorobenzo[d]oxazol-2-yl)-1-((1-cyanocyclopropyl)amino)-1-oxopropan-2-yl)-1-(oxetan-3-yl)-1H-pyrazole-5-carboxamide], the IC50 at human CatL (setting [1]) came out at 5.3 nM. Moreover, in the experiment on SARS-CoV-2 PsVs, the activity at 0.5 µM stood at 33% and the activity at 5 µM is 13%.

`CN(C)c1ccc(-c2ccc3nc(C[C@H](NC(=O)c4cc(C5(C)CC5)nn4C4CC4)C(=O)NC4(C#N)CC4)oc3c2)cn1` [Compound 39, (2S)—N-(1-cyanocyclopropyl)-2-{[2-cyclopropyl-5-(1-methylcyclopropyl)pyrazol-3-yl]formamido}-3-{6-[6-(dimethylamino)pyridin-3-yl]-1,3-benzoxazol-2-yl}propanamide]: the IC50 on human CatL (setting [1]) was found to be 1.6 nM. In the experiment with SARS-CoV-2 PsVs, the activity at 0.5 µM was 32% and the activity at 5 µM worked out at 4%.

Take `N#CC1(NC(=O)[C@H](Cc2nc3ccc(C(F)(F)F)cc3o2)NC(=O)c2cccc(Cl)c2)CC1` [Compound 11, (S)-3-chloro-N-(1-((1-cyanocyclopropyl)amino)-1-oxo-3-(6-(trifluoromethyl)benzo[d]oxazol-2-yl)propan-2-yl)benzamide]: the IC50 on human CatL (setting [1]) turned out to be 94.6 nM. For the same compound, in the experiment on SARS-CoV-2 PsVs, the activity at 0.5 µM turned out to be 86% and the activity at 5 µM came out at 81%.

For the compound `CC(C)(C)c1cc(C(=O)N[C@@H](Cc2nc3ccc(C4=CCN(CC(F)F)CC4)cc3o2)C(=O)NC2(C#N)CC2)n(C2CC2)n1` [Compound 29, (S)-3-(tert-butyl)-N-(1-((1-cyanocyclopropyl)amino)-3-(6-(1-(2,2-difluoroethyl)-1,2,3,6-tetrahydropyridin-4-yl)benzo[d]oxazol-2-yl)-1-oxopropan-2-yl)-1-cyclopropyl-1 H-pyrazole-5-carboxamide], the IC50 at human CatL (setting [1]) is 1.3 nM. Also, the IC50 at human CatL (setting [2]) was less than 10 nM. In addition, in the experiment with SARS-CoV-2 PsVs, the “protection of cells from pseudovirus infection at 500 nM” value is reported as “nearly full protection”, the activity at 0.5 µM worked out at 7.3% and the activity at 5 µM was found to be 8.8%.
